Our source for the IC50 values is patent US12281122B1, “PI3K inhibitors” (Cogent Biosciences, Inc., priority 2023, dated 2025).

Each structure is given as a SMILES string. Where only a bound is given, the exact number is not on record here.

In test [1] the test system is SKBR3 (PI3Kα-Wild Type) cell line. Put plainly: HTRF phospho-AKT(S473) cell assay in SKBR3 cells. The test is classed as cell-based, human. The following applies: Homo sapiens, SK-BR-3; HTRF phospho-AKT(S473), SKBR3 (PI3Kα-Wild Type) cells, 2 hours compound incubation, PDGF-BB stimulated. The gist of the method: (§1)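 Cells plated overnight (T47D in RPMI/10% FBS/0.2 units/mL insulin; SKBR3 in McCoy's 5A/10% FBS), then given 12-point 1:3 compound series (top 5 μM T47D, 10 μM SKBR3; ≤0.5% DMSO) for 2 h at 37° C. SKBR3 stimulated with 70 ng/ml PDGF-BB for final 15 min. Lysate pAKT(S473) by HTRF; IC50 calculated.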
On the technique in general: TR-FRET usually uses a lanthanide donor and a delayed reading to cut background.

Test [2] concerns T47D (PI3Kα-H1047R) cell line. Briefly: HTRF phospho-AKT(S473) cell assay in T47D cells. Type of test: cell-based, human. The conditions noted are these: Homo sapiens; HTRF phospho-AKT(S473), T47D (PI3Kα-H1047R) cells, 2 hours compound incubation. The gist of the method:
as §1

As a reminder, the IC50 is the concentration that gives 50% inhibition. Read a low IC50 as higher potency. Turning to `Cc1cc([C@@H](C)Nc2ccc(Cl)nc2C(=O)NS(C)(=O)=O)c2nc(N3CC[C@H](N(C)c4ncc(F)cn4)C3)n(C)c(=O)c2c1` [Compound 739, 6-chloro-3-(((R)-1-(2-((S)-3-((5-fluoropyrimidin-2-yl)(methyl)amino)pyrrolidin-1-yl)-3,6-dimethyl-4-oxo-3,4-dihydroquinazolin-8-yl)ethyl)amino)-N-(methylsulfonyl) picolinamide], the IC50 was at least 5000 nM in test [1] and 250 to 500 nM in test [2].

As to `Cc1cc([C@@H](C)Nc2ccc(Cl)nc2C(=O)NS(C)(=O)=O)c2nc(N3CC[C@H](N(C)c4ncc(Cl)cn4)C3)n(C)c(=O)c2c1` [Compound 740, 6-chloro-3-(((R)-1-(2-((S)-3-((5-chloropyrimidin-2-yl)(methyl)amino)pyrrolidin-1-yl)-3,6-dimethyl-4-oxo-3,4-dihydroquinazolin-8-yl)ethyl)amino)-N-(methylsulfonyl) picolinamide], the values for the IC50 in test [1] and in test [2] were at least 5000 nM and 250 to 500 nM, respectively.

In the case of `Cc1cc([C@@H](C)Nc2ccc(Cl)nc2C(=O)NS(C)(=O)=O)c2nc(N3C[C@@H]4[C@H](C3)[C@H]4n3cc(C(F)(F)F)cn3)n(C)c(=O)c2c1` [Compound 741, 6-chloro-3-(((R)-1-(3,6-dimethyl-4-oxo-2-((1R,5S,6S)-6-(4-(trifluoromethyl)-1H-pyrazol-1-yl)-3-azabicyclo[3.1.0]hexan-3-yl)-3,4-dihydroquinazolin-8-yl)ethyl)amino)-N-(methylsulfonyl) picolinamide], the IC50 in test [1] is at least 5000 nM; in test [2] it was 500 to 1000 nM.

Regarding `Cc1cc([C@@H](C)Nc2ccc(Cl)nc2C(=O)NS(C)(=O)=O)c2nc(N3C[C@@H]4[C@H](C3)[C@H]4c3nc(C)no3)n(C)c(=O)c2c1` [Compound 742, 6-chloro-3-(((R)-1-(3,6-dimethyl-2-((1R,5S,6R)-6-(3-methyl-1,2,4-oxadiazol-5-yl)-3-azabicyclo[3.1.0]hexan-3-yl)-4-oxo-3,4-dihydroquinazolin-8-yl)ethyl)amino)-N-(methylsulfonyl) picolinamide], the IC50 in test [1] lay in the range of 1000 to 5000 nM; in test [2] it was 250 to 500 nM.

For the molecule `Cc1cc([C@@H](C)Nc2ccc(Cl)nc2C(=O)NS(C)(=O)=O)c2nc(N3CCC(c4cnn(C(C)C)n4)CC3)n(C)c(=O)c2c1` [Compound 744, (R)-6-chloro-3-((1-(2-(4-(2-isopropyl-2H-1,2,3-triazol-4-yl)piperidin-1-yl)-3,6-dimethyl-4-oxo-3,4-dihydroquinazolin-8-yl)ethyl)amino)-N-(methylsulfonyl) picolinamide], the IC50 in test [1] was at least 5000 nM; in test [2] it was 250 to 500 nM.

Consider `Cc1cc([C@@H](C)Nc2ccc(Cl)nc2C(=O)NS(C)(=O)=O)c2nc(N3C[C@@H]4[C@H](C3)[C@H]4c3ccnc(N(C)C)c3)n(C)c(=O)c2c1` [Compound 745, 6-chloro-3-(((R)-1-(2-((1R,5S,6S)-6-(2-(dimethylamino)pyridin-4-yl)-3-azabicyclo[3.1.0]hexan-3-yl)-3,6-dimethyl-4-oxo-3,4-dihydroquinazolin-8-yl)ethyl)amino)-N-(methylsulfonyl) picolinamide], for which the IC50 was at least 5000 nM in test [1] and 250 to 500 nM in test [2].

In the case of `[2H]C([2H])([2H])n1ccc(C2CCN(c3nc4c([C@@H](C)Nc5ccc(Cl)nc5C(=O)NS(C)(=O)=O)cc(C)cc4c(=O)n3C)CC2)n1` [Compound 746, (R)-6-chloro-3-((1-(3,6-dimethyl-2-(4-(1-(methyl-d3)-1H-pyrazol-3-yl)piperidin-1-yl)-4-oxo-3,4-dihydroquinazolin-8-yl)ethyl)amino)-N-(methylsulfonyl) picolinamide], the figures for the IC50 in test [1] and in test [2] were at least 5000 nM and under 250 nM, respectively.

Regarding `[2H]C([2H])([2H])n1nccc1C1CCN(c2nc3c([C@@H](C)Nc4ccc(Cl)nc4C(=O)NS(C)(=O)=O)cc(C)cc3c(=O)n2C)CC1` [Compound 747, (R)-6-chloro-3-((1-(3,6-dimethyl-2-(4-(1-(methyl-d3)-1H-pyrazol-5-yl)piperidin-1-yl)-4-oxo-3,4-dihydroquinazolin-8-yl)ethyl)amino)-N-(methylsulfonyl) picolinamide], the IC50 in test [1] is 1000 to 5000 nM; in test [2] it was under 250 nM.

With `Cc1ccn(C2CCN(c3nc4c([C@@H](C)Nc5ccc(Cl)nc5C(=O)NS(C)(=O)=O)cc(C)cc4c(=O)n3C)CC2)c(=O)c1` [Compound 753, (R)-6-chloro-3-((1-(3,6-dimethyl-2-(4-(4-methyl-2-oxopyridin-1(2H)-yl)piperidin-1-yl)-4-oxo-3,4-dihydroquinazolin-8-yl)ethyl)amino)-N-(methylsulfonyl) picolinamide], the IC50 was 1000 to 5000 nM in test [1] and under 250 nM in test [2].

Take `Cc1ccn([C@H]2[C@@H]3CN(c4nc5c([C@@H](C)Nc6ccc(Cl)nc6C(=O)NS(C)(=O)=O)cc(C)cc5c(=O)n4C)C[C@@H]32)c(=O)c1` [Compound 754, 6-chloro-3-(((R)-1-(3,6-dimethyl-2-((1R,5S,6S)-6-(4-methyl-2-oxopyridin-1(2H)-yl)-3-azabicyclo[3.1.0]hexan-3-yl)-4-oxo-3,4-dihydroquinazolin-8-yl)ethyl)amino)-N-(methylsulfonyl) picolinamide]: the results for the IC50 in test [1] and in test [2] were at least 5000 nM and under 250 nM, respectively.

In the case of `Cc1cc([C@@H](C)Nc2ccc(Cl)nc2C(=O)NS(C)(=O)=O)c2nc(N3C[C@@H]4[C@H](C3)[C@H]4n3ccccc3=O)n(C)c(=O)c2c1` [Compound 755, 6-chloro-3-(((R)-1-(3,6-dimethyl-4-oxo-2-((1R,5S,6S)-6-(2-oxopyridin-1(2H)-yl)-3-azabicyclo[3.1.0]hexan-3-yl)-3,4-dihydroquinazolin-8-yl)ethyl)amino)-N-(methylsulfonyl) picolinamide], the results for the IC50 in test [1] and in test [2] were 1000 to 5000 nM and 250 to 500 nM, respectively.

Take `Cc1cc([C@@H](C)Nc2ccc(Cl)nc2C(=O)NS(=O)(=O)c2ccc(N(C)C)nc2)c2nc(N3Cc4ccc(F)cc4C3)n(C)c(=O)c2c1` [Compound 757, (R)-6-chloro-N-((6-(dimethylamino)pyridin-3-yl)sulfonyl)-3-((1-(2-(5-fluoroisoindolin-2-yl)-3,6-dimethyl-4-oxo-3,4-dihydroquinazolin-8-yl)ethyl)amino) picolinamide]: the IC50 in test [1] was at least 5000 nM; in test [2] it was 250 to 500 nM.

For the molecule `CCn1cc(F)c(C2CCN(c3nc4c([C@@H](C)Nc5ccc(Cl)nc5C(=O)NS(C)(=O)=O)cc(C)cc4c(=O)n3C)CC2)n1` [Compound 758, (R)-6-chloro-3-((1-(2-(4-(1-ethyl-4-fluoro-1H-pyrazol-3-yl)piperidin-1-yl)-3,6-dimethyl-4-oxo-3,4-dihydroquinazolin-8-yl)ethyl)amino)-N-(methylsulfonyl) picolinamide], the IC50 in test [1] was at least 5000 nM; in test [2] it was 250 to 500 nM.

Turning to `Cc1cc([C@@H](C)Nc2ccc(Cl)nc2C(=O)NS(C)(=O)=O)c2nc(N3CCC(c4nn(C5COC5)cc4F)CC3)n(C)c(=O)c2c1` [Compound 759, (R)-6-chloro-3-((1-(2-(4-(4-fluoro-1-(oxetan-3-yl)-1H-pyrazol-3-yl)piperidin-1-yl)-3,6-dimethyl-4-oxo-3,4-dihydroquinazolin-8-yl)ethyl)amino)-N-(methylsulfonyl) picolinamide], the values for the IC50 in test [1] and in test [2] were 1000 to 5000 nM and 250 to 500 nM, respectively.
